In patent publication US7173014B2, “HIV-specific synthetic oligonucleotides and methods of their use” (priority 1997, dated 2007):

Key:
[1] = tested on: HIV-1 (IIIB, RF and SK1); assay: XTT-based anti-HIV assay, laboratory strains of HIV-1; type: cell-based
Text: The initial experiment performed involved evaluation of Oligos 12, 32, and 41 against three laboratory strains of HIV-1 (IIIB, RF and SK1) and one strain of HIV-2 (ROD) in parallel with the positive control compound ddC in the XTT-based anti-HIV assay. All these oligonucleotides are active against both HIV-1 and HIV-2.
CEM-SS sells (AIDS Research and Reference Reagent Program, NIH) or other established human T cell lines used in these experiments were passaged in T-150 flasks for use in the assay. On the day preceding the assay, the cells were split 1:2 to assure they would be in an exponential growth phase at time of infection. On the day of assay the cells were washed twice with tissue culture medium and resuspended in fresh tissue cultures medium. Total cell and viability counting was performed using a hemacytometer and trypan blue dye exclusion. Cell viability was greater than 95% for the cells to be utilized in the assay. The cells were pelleted and resuspended at 2.5×10^4 cells per ml in tissue culture medium. […]
A pretitered aliquot of virus was removed from the freezer −80° C.) and allowed to thaw slowly to room temperature in a biological safety cabinet. The virus was resuspended and diluted into tissue culture medium such that the amount of virus added to each well in a volume of 50 μl will be the amount determined to give complete cell killing at 6 days post-infection. […]
After 6 days of incubation at 37° C. in a 5% CO2 incubator, the test plates were analyzed by staining with the tetrazolium dye XTT. XTT-tetrazolium is metabolized by the mitochondrial enzymes of metabolically active cells to a soluble formazan product, allowing the rapid quantitative analysis of the inhibition of HIV-induced cell killing by anti-HIV test substances. […]
XTT solution was prepared daily as a stock of 1 mg/ml in PBS. […] Adhesive plate sealers were used in place of the lids, the sealed plate was inverted several times to mix the soluble formazan product and the plate was read spectrophotometrically at A450 nm with a Molecular Devices Vmax plate reader.

[2] = tested on: low passage, clinical strains of HIV-1; assay: Anti-HIV activity in fresh human peripheral blood mononuclear cells; type: cell-based; conditions: fresh human PBMC; varies from strain to strain
Experimental: In another experiment, the anti-HIV activity of Oligos 12, 32, and 41 was evaluated against a variety of low passage, clinical strains of HIV-1 in fresh human peripheral blood mononuclear cells. These strains include viruses obtained from pediatric patients attending the Children's Hospital University of Alabama at Birmingham as well as viruses representative of the various HIV-1 clades found throughout the world, shown below in TABLE 4.
Fresh human peripheral blood lymphocytes (PBL) were isolated from voluntary Red Cross donors, seronegative for HIV and HBV. Leukophoresed blood was diluted 1:1 with Dulbecco's phosphate buffered saline (PBS), layered over 14 ml of Ficoll-Hypaque density gradient in a 50 ml centrifuge tube. Tubes were then centrifuged for 30 minutes at 600×g. Banded PBLs were gently aspirated from the resulting interface and subsequently washed 2× with PBS by low speed centrifugation. After final wash, cells were enumerated by trypan blue exclusion and re-suspended at 1×10^7/ml in RPMI 1640 with 15% Fetal Bovine Serum (FBS), 2 mM L-glutamine, […] PHA-P and allowed to incubate for 48–72 hours at 37° C. After incubation, PBLs were centrifuged and reset in RPMI 1640 with 15% FBS, 2 mM L-glutamine, 100 U/ml penicillin, 100 μg/ml streptomycin, 10 μg/ml gentamycin, and 20 U/ml recombinant human IL-2. PBLs were maintained in this medium at a concentration of 1–2×10^6/ml with bi-weekly medium changes, until use in assay protocol. […]
In the standard PBL assay (MOI: 0.2), the assay was ended on day 7 following collection of cell free supernatant samples for reverse transcriptase activity assay. In the low MOI PBL assay (MOI: 0.02), supernatant samples were collected on day 6, day 11, and day 14 post-infection and analyzed for RT activity. […] Opti-Fluor O was added to each sample and incorporated radioactivity was quantified utilizing a liquid scintillation counter, (Wallac 1450 Microbetaplus, Gaithersburg, Md.).

Substance: Oligo 41: oligonucleotide having SEQ ID NO:6; sequence not printed, not listed in TABLE 2 (UCGCACCCATCTCTCTCCUUC; chemistry not given here)
- activity against HIV-1 [1]: active
- activity against low passage clinical T-tropic strains of HIV-1 [2]: active
